# Results from patent US7807688B2, “Tri-heterocyclic compounds and a pharmaceutical comprising them as an active ingredient” (Ono Pharmaceutical Co., Ltd., priority 2000, dated 2010).
# Tested on: male SD rats
# Experiment: Measurement of antianxiety activity using the elevated plus-maze
# Assay type: in vivo, rat
# Conditions: 3 and 10 mg/kg, 30 minutes after administration, 5 minutes period
# Protocol: Two arms (open and closed) of equal width and length (50 cm×10 cm), which crossed at a right angle to form a plus maze, were elevated to a height 50 cm above the ground level. […] Lighting on both ends of the open arm was maintained at constant illumination. Thirty minutes after administration of various doses of test-compounds (5 mL/kg), male SD rats were placed in the center of the plus maze. The time spent(s) in the open arms and the number of entries into the respective arms were measured within a 5 minutes period. The investigation personnel for measuring the indexes positioned at a fixed location during the course of the experiment.
smiles,measurement,setting,value
"CCC(CC)Nc1c2c(nc3c(-c4ccc(OC)cc4Cl)c(C)nn13)CCC2.Cl [Example 2(78), 8-(3-pentylamino)-2-methyl-3-(2-chloro-4-methoxyphenyl)-6,7-dihydro-5H-cyclopenta[d]pyrazolo[1,5-a]pyrimidine hydrochloride]",time spent in the open arms,FIG. 1,extend significantly
same,number of entries into the open arms,FIG. 2,increased significantly
